Results published in the kinase profiling compilation of Christmann-Franck et al. (2016).

Columns and labels:
Test in all cases: radiometric filter-binding kinase assay
LCK (mouse) = settings: accession and sequence are those of the human protein
MAPK10 (human) = MAPK10 (human) (UniProt P53779)
PRKACA (human) = PRKACA (human) (UniProt P17612)
MAPK9 (human) = MAPK9 (human) (UniProt P45984)
CLK2 (human) = CLK2 (human) (UniProt P49760)
[1] = test system: OXSR1 (human), O95747 [T185E]
STK11 (human) = STK11 (human) (UniProt Q15831)
RPS6KA3 KD1 KD2 (human) = RPS6KA3 KD1 KD2 (human) (UniProt P51812)
WNK1 (human) = WNK1 (human) (UniProt Q9H4A3)
MKNK2 (human) = MKNK2 (human) (UniProt Q9HBH9)
MAP2K6 (human) = MAP2K6 (human) (UniProt P52564)
DAPK1 (human) = DAPK1 (human) (UniProt P53355)
ABL1 (human) = ABL1 (human) (UniProt P00519)
MAPK1 (human) = MAPK1 (human) (UniProt P28482)
MAP3K7 (human) = MAP3K7 (human) (UniProt O43318)
IKBKE (human) = IKBKE (human) (UniProt Q14164)
MAPK11 (human) = MAPK11 (human) (UniProt Q15759)
STK24 (human) = STK24 (human) (UniProt Q9Y6E0); settings: compound 1.0 µM
RPS6KA1 KD1 KD2 (human) = RPS6KA1 KD1 KD2 (human) (UniProt Q15418)
MAPK13 (human) = MAPK13 (human) (UniProt O15264)
MAP2K2 (human) = MAP2K2 (human) (UniProt P36507)
PIM3 (human) = PIM3 (human) (UniProt Q86V86)
HIPK2 (human) = HIPK2 (human) (UniProt Q9H2X6)
YES1 (human) = YES1 (human) (UniProt P07947); settings: compound 10.0 µM
PTK6 (human) = PTK6 (human) (UniProt Q13882)
TBK1 (human) = TBK1 (human) (UniProt Q9UHD2)
TSSK1B (human) = TSSK1B (human) (UniProt Q9BXA7)
GSK3B (human) = GSK3B (human) (UniProt P49841)
HIPK3 (human) = HIPK3 (human) (UniProt Q9H422); settings: compound 1.0 µM

Chain of DAPK1 (human) (P53355 whole entry, looked up): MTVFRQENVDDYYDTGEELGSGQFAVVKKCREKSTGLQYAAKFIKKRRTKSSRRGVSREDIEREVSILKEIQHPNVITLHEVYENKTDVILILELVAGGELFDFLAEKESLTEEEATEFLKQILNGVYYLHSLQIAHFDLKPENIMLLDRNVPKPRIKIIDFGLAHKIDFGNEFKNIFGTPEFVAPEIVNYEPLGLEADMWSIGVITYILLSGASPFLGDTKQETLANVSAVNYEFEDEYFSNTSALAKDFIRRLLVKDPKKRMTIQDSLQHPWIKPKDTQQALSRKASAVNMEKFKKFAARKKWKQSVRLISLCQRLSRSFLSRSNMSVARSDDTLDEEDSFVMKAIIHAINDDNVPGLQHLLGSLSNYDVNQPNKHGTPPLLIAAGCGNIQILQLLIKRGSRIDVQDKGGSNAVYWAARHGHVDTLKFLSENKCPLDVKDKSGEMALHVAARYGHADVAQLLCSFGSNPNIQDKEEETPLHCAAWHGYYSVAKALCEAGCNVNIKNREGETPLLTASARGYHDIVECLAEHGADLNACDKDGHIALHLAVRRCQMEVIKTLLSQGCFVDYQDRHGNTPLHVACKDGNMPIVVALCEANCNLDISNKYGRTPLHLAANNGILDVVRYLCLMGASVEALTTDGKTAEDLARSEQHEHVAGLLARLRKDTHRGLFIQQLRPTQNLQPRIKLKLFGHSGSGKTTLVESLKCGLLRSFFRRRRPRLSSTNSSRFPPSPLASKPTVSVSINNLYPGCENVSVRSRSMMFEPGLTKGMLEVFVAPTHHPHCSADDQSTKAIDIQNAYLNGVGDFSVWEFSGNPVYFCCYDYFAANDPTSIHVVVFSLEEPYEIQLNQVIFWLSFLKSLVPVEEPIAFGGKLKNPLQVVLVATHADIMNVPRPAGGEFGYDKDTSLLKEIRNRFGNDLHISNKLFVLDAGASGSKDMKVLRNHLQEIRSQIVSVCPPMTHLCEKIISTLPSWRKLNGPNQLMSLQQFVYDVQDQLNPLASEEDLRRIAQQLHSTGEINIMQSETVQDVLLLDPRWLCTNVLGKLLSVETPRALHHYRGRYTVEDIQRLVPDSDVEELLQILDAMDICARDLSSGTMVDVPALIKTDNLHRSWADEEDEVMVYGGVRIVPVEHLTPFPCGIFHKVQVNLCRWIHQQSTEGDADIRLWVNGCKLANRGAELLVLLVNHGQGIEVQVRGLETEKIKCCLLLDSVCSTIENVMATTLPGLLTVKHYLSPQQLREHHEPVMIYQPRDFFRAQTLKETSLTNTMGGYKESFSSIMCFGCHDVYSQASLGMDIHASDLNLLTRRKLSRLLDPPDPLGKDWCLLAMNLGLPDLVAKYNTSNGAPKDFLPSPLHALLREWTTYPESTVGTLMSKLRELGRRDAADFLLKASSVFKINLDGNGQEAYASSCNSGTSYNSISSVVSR
Chain of OXSR1 (human), O95747 [T185E] (O95747 whole entry T185E, looked up): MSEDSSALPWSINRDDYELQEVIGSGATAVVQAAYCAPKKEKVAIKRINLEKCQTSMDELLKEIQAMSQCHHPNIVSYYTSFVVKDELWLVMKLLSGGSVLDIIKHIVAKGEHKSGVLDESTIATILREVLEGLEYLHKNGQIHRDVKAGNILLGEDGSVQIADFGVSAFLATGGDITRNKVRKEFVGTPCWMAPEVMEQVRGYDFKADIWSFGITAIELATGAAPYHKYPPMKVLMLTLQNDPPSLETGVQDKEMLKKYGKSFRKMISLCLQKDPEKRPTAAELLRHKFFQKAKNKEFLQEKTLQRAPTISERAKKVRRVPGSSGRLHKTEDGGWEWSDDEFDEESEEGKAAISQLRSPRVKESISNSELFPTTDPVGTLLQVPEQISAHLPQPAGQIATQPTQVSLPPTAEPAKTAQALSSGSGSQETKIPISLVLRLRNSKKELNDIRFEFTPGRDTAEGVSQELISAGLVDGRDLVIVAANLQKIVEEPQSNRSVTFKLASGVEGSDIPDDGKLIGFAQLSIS
Chain of IKBKE (human) (Q14164 whole entry, looked up): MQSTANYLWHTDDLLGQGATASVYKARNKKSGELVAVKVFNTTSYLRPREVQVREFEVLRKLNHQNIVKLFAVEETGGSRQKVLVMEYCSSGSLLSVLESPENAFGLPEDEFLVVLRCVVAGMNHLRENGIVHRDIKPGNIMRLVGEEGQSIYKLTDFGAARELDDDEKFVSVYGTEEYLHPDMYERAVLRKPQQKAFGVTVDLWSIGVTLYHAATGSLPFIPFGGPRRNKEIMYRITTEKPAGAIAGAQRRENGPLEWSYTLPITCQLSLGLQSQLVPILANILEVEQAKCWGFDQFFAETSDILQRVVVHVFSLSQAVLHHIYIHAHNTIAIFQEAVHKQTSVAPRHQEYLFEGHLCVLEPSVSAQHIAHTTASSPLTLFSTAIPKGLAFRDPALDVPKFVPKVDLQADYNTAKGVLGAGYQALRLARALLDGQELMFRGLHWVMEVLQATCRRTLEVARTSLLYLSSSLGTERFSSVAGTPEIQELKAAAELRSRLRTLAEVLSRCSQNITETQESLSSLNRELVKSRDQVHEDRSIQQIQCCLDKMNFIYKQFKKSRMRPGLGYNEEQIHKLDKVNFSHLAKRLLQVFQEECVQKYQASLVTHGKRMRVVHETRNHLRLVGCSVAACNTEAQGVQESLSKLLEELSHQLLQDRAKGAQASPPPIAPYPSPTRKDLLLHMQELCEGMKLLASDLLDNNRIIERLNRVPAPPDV
Chain of ABL1 (human) (P00519 whole entry, looked up): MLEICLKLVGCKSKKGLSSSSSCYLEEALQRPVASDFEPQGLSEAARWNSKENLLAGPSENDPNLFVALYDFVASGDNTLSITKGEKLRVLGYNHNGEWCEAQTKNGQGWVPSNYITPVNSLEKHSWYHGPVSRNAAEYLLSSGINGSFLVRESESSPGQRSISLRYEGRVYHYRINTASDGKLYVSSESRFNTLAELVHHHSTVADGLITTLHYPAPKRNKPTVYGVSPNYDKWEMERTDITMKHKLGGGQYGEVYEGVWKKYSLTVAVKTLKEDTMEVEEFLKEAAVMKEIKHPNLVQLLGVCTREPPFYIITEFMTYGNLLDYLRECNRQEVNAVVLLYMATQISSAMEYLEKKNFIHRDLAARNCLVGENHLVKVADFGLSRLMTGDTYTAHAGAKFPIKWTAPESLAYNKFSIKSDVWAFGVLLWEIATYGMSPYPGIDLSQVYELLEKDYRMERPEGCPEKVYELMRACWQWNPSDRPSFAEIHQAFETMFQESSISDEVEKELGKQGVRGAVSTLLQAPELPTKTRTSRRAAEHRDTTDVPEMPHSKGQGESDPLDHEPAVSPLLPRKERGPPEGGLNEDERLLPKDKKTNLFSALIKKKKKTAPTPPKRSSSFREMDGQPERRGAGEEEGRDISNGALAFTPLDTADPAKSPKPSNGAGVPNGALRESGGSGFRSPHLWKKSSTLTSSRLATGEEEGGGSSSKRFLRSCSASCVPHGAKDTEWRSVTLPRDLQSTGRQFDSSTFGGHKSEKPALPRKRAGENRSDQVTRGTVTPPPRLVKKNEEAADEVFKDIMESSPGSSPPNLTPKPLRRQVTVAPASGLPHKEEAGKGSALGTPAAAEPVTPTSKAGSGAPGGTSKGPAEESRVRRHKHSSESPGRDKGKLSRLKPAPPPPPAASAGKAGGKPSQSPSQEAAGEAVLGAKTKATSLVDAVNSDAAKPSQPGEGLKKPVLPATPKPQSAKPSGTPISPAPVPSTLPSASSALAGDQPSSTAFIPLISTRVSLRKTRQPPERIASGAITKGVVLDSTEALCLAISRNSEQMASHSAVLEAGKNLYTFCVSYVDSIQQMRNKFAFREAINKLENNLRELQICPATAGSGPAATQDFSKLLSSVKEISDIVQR
Chain of MAPK9 (human) (P45984 whole entry, looked up): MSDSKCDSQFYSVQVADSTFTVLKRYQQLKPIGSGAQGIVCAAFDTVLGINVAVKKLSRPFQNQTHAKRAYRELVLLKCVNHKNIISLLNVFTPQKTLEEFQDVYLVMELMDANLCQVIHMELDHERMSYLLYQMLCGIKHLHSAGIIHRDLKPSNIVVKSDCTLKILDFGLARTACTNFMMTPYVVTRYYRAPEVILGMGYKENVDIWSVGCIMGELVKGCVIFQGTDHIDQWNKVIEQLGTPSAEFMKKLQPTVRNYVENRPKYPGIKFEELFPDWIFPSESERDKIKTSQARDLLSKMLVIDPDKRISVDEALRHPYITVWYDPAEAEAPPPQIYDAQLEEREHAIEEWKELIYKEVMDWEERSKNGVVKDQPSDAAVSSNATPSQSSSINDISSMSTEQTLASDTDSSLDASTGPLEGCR
Chain of MAP2K6 (human) (P52564 whole entry, looked up): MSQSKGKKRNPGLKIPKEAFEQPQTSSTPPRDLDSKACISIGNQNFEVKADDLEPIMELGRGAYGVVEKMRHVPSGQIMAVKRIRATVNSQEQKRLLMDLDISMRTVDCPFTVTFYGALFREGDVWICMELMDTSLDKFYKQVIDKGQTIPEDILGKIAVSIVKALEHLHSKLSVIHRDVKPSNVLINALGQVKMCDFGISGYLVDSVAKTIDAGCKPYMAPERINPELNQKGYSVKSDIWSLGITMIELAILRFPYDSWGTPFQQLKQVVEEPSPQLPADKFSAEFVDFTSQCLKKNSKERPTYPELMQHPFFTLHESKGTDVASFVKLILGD

CNc1nc(Nc2ccc(C(=O)N3CCOCC3)cc2OC)ncc1Cl showed a residual activity (LCK (mouse); compound 1.0 µM) of 92%, a residual activity (LCK (mouse); compound 10.0 µM) of 95% and a residual activity (MAPK10 (human); compound 1.0 µM) of 60%. For the same molecule, the residual activity (MAPK10 (human); compound 10.0 µM) was 29%, the residual activity (PRKACA (human); compound 1.0 µM) was 85% and the residual activity (PRKACA (human); compound 10.0 µM) was 94%. The residual activity (MAPK9 (human); compound 1.0 µM) was 76%, the residual activity (MAPK9 (human); compound 10.0 µM) was 46% and the residual activity (CLK2 (human); compound 1.0 µM) was 91%. For the same molecule, the residual activity (CLK2 (human); compound 10.0 µM) was 76%, the residual activity ([1]; compound 1.0 µM) was 108% and the residual activity ([1]; compound 10.0 µM) was 82%. For the same molecule, the residual activity (STK11 (human); compound 1.0 µM) was 92%, the residual activity (STK11 (human); compound 10.0 µM) was 90% and the residual activity (RPS6KA3 KD1 KD2 (human); compound 1.0 µM) was 92%. It also gave a residual activity (RPS6KA3 KD1 KD2 (human); compound 10.0 µM) of 65%, a residual activity (WNK1 (human); compound 1.0 µM) of 62% and a residual activity (WNK1 (human); compound 10.0 µM) of 99%. The residual activity (MKNK2 (human); compound 1.0 µM) was 20%, the residual activity (MKNK2 (human); compound 10.0 µM) was 7% and the residual activity (MAP2K6 (human); compound 1.0 µM) was 74%. It also gave a residual activity (MAP2K6 (human); compound 10.0 µM) of 65%, a residual activity (DAPK1 (human); compound 1.0 µM) of 61% and a residual activity (DAPK1 (human); compound 10.0 µM) of 23%. The residual activity (ABL1 (human); compound 1.0 µM) was 84%, the residual activity (ABL1 (human); compound 10.0 µM) was 86% and the residual activity (MAPK1 (human); compound 1.0 µM) was 79%. It also gave a residual activity (MAPK1 (human); compound 10.0 µM) of 69%, a residual activity (MAP3K7 (human); compound 1.0 µM) of 74% and a residual activity (MAP3K7 (human); compound 10.0 µM) of 25%. For the same molecule, the residual activity (IKBKE (human); compound 1.0 µM) was 77%, the residual activity (IKBKE (human); compound 10.0 µM) was 75% and the residual activity (MAPK11 (human); compound 1.0 µM) was 57%. It also gave a residual activity (MAPK11 (human); compound 10.0 µM) of 93%, a residual activity (STK24 (human)) of 83% and a residual activity (RPS6KA1 KD1 KD2 (human); compound 1.0 µM) of 87%. The residual activity (RPS6KA1 KD1 KD2 (human); compound 10.0 µM) was 54%, the residual activity (MAPK13 (human); compound 1.0 µM) was 87% and the residual activity (MAPK13 (human); compound 10.0 µM) was 86%. The residual activity (MAP2K2 (human); compound 1.0 µM) was 91%, the residual activity (MAP2K2 (human); compound 10.0 µM) was 86% and the residual activity (PIM3 (human); compound 1.0 µM) was 77%. For the same molecule, the residual activity (PIM3 (human); compound 10.0 µM) was 72%, the residual activity (HIPK2 (human); compound 1.0 µM) was 77% and the residual activity (HIPK2 (human); compound 10.0 µM) was 88%. The residual activity (YES1 (human)) was 90%, the residual activity (PTK6 (human); compound 1.0 µM) was 56% and the residual activity (PTK6 (human); compound 10.0 µM) was 39%. For the same molecule, the residual activity (TBK1 (human); compound 1.0 µM) was 86%, the residual activity (TBK1 (human); compound 10.0 µM) was 42% and the residual activity (TSSK1B (human); compound 1.0 µM) was 51%. For the same molecule, the residual activity (TSSK1B (human); compound 10.0 µM) was 19%, the residual activity (GSK3B (human); compound 1.0 µM) was 100% and the residual activity (GSK3B (human); compound 10.0 µM) was 98%. For the same molecule, the residual activity (HIPK3 (human)) was 85%.
